Measured values from patent publication US7341836B2, “Modified cyclic nucleotide gated ion channels” (The Regents of the University of Colorado, priority 2001, dated 2008).
“Also recorded” adds a separate entry of the source.

What was measured:
[1] = system: PDE activity in GH4C1 cells; experiment: Effect of PDE inhibitors, forskolin and VIP on cAMP levels (Ca2+ influx through CNG channels); format: cell-based, rat; conditions: for Ca2+ influx induced by the PDE inhibitor alone (basal cAMP) / d(ΔF/F0)/dt: C460W/E583M channels; for Ca2+ influx induced by the PDE inhibitor alone (basal cAMP): no AC stimulation; for d(ΔF/F0)/dt: basal cAMP, inhibitor concentration (μM); for effect on forskolin-induced Ca2+ influx / PDE activity: Δ61-90/C460W/E583M channels, 10 μM forskolin
In short: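 GH4C1 rat pituitary cells expressing high-affinity C460W/E583M or Δ61-90/C460W/E583M CNG channels (adenovirus), with 1 μM nimodipine at time zero; cAMP read as Ca2+ influx rate d(ΔF/F0)/dt. PDE inhibitors or 100 μM IBMX added at 60 s, then 10 μM forskolin or 100 nM VIP at 240 s; mean±SE.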

[2] = system: PDE activity in HEK-293 cells; experiment: Effect and in vivo KI of PDE inhibitors on forskolin-induced Ca2+ influx through CNG channels; conditions: for effect on forskolin-induced Ca2+ influx: 1 μM forskolin, IBMX 10 or 100 μM, RO-20-1724 10 μM; for time to complete equilibration across the plasma membrane of HEK-293 cells: human, pH 7.4
Method: Next, experiments were conducted to pharmacologically identify the PDE type(s) that regulates cAMP levels near CNG channels. The C460W/E583M channels were used to monitor forskolin-stimulated cAMP accumulation in the presence and absence of a series of PDE inhibitors. […] In these experiments, inhibitor concentrations were used at which specific PDE types should be inhibited.
This required developing a quantitative framework to assess the relationship between cAMP synthesis, hydrolysis, and redistribution throughout the cell. Thus, the following formalism was adopted:
[formula] where C is the steady-state rate of cAMP synthesis by AC, Vmax is the maximal rate of cAMP hydrolysis, Km is the Michaelis constant for PDE, and kf is the rate constant of cAMP flux out of the microdomain. In order to estimate KI for the PDE inhibitors two assumptions were made. First, it was assumed that at low levels of AC stimulation and PDE inhibition, the concentration of local cAMP is low and diffusion of cAMP out of the microdomain is negligible. Second, the assumption was made that cAMP levels reach steady-state shortly after AC stimulation (i.e., equal rates of synthesis and hydrolysis). With these assumptions, Eq. 4 can be simplified to:
[formula] […] At low cAMP concentrations (<K1/2 for the channel), the cAMP concentration is proportional to the square root of the Ca^2+ influx rate (the Hill coefficient for channel activation is approximately 2). Thus, KI, can be estimated using a linear fit to the square root of the slopes of the fluorescence traces as a function of inhibitor concentration (See, FIG. 11).
Increases in local cAMP concentration activate CNG channels and trigger Ca^2+ entry. Ca^2+ influx was monitored in cell populations using the fluorescent indicator fura-2.
Additions were made by pipetting stock solutions into a stirred cuvette. The solutions were then assayed using an LS-50B spectrofluorimeter (Perkin Elmer). […]
Fluorescence was measured at an excitation wavelength of 380 nm and an emission wavelength of 510 nm. […] The MATLAB software package (MathWorks) was used for curve fitting and simulations.
The C460W/E583M channels were used to monitor forskolin-stimulated cAMP accumulation in the presence and absence of a series of PDE inhibitors. […] In these experiments, inhibitor concentrations were used at which specific PDE types should be inhibited.
[formula] where C is the steady-state rate of cAMP synthesis by AC, Vmax is the maximal rate of cAMP hydrolysis, Km is the Michaelis constant for PDE, and kf is the rate constant of cAMP flux out of the microdomain. In order to estimate KI for the PDE inhibitors, two assumptions were made.

[3] = C460W/E583M channels, 0.5 μM forskolin, n=4
[4] = FIG. 11, the experiments shown, C460W/E583M channels, 0.5 μM forskolin

Compound | Ca2+ influx induced by the PDE inhibitor alone (basal cAMP) [1] | d(ΔF/F0)/dt [1] | effect on forskolin-induced Ca2+ influx / PDE activity [1] | Ki [2, 3] | effect on forskolin-induced Ca2+ influx ([2]; C460W/E583M channels) | Ki [2, 4] | time to complete equilibration across the plasma membrane of HEK-293 cells [2] | Ki ([2]; Δ61-90/C460W/E583M channels, n=3) | slope of ΔF/F0 ([2]; 50 nM rolipram at 0 s, 0.5 μM forskolin at 180 s, C460W/E583M channels)
CCCCOc1cc(CC2CNC(=O)N2)ccc1OC (stereo not shown) [RO-20-1724, 4-(3-butoxy-4-methoxybenzyl)-2-imidazolidinone] | No RO-20-1724- or rolipram-sensitive PDE was observed | 0 s⁻¹ | also inhibited PDE activity; also recorded: increase forskolin-induced Ca^2+ influx through CNG channels | 0.13 ± 0.02 µM | significant forskolin-induced Ca^2+ influx was observed; also recorded: influenced the time course of forskolin-induced Ca^2+ influx | 0.14 µM | < 180 s | 0.15 ± 0.02 µM | 
COc1ccc(C2CNC(=O)C2)cc1OC1CCCC1 (stereo not shown) [Rolipram] | No RO-20-1724- or rolipram-sensitive PDE was observed | 0 s⁻¹ | also inhibited PDE activity; also recorded: increase forskolin-induced Ca^2+ influx through CNG channels | 0.07 ± 0.02 µM | significantly increased the forskolin-induced Ca^2+ influx | 0.09 µM |  |  | 0.00062 s⁻¹
CC(C)Cn1c(=O)n(C)c(=O)c2[nH]cnc21 [IBMX, 3-isobutyl-1-methylxanthine] | induced Ca^2+ influx through CNG channels |  | significantly inhibited PDE activity; also recorded: increase forskolin-induced Ca^2+ influx through CNG channels | 11 ± 2 µM | significant forskolin-induced Ca^2+ influx was observed; also recorded: influenced the time course of forskolin-induced Ca^2+ influx | 10 µM | < 180 s |  | 
CCCCCC[C@@H]([C@@H](C)O)n1cnc2c(N)ncnc21 (racemic) [EHNA] |  | 0.0029 ± 0.0011 s⁻¹ |  |  |  |  |  |  | 
